In US20050239805A1, “Mixtures of fused pyrimidinones and dinitrophenolic compounds useful for controlling powdery mildews” (priority 2002, published 2005):

Key:
[1] = system: Erysiphe graminis f. sp. tritici; assay: Test A: preventive spray on wheat seedlings, wheat powdery mildew disease control; type: in vivo, Erysiphe graminis f. sp. tritici (wheat seedlings); conditions: average of three replicates
Protocol: The formulation containing a compound of component (1) is dissolved in water to form a stock solution. For testing component (1) individually the stock solution is diluted to the final desired concentration to form a test solution. For example, the compositions of component (1) (e.g., Compound 1 of Index Table A), either alone or in combination, are sprayed at 0.08 or 0.4 ppm to the point of run-off on the test plants, equivalent to a rate of 0.2 or 1 g/ha, respectively.
The commercially available formulation of component (2) (e.g. the Karathane® 19.5% wettable powder formulation of dinocap) is suspended in water to form a stock suspension. For testing component (2) individually the stock suspension is diluted to the final desired concentration to form a test suspension. For example, dinocap, either alone or in combination, is sprayed at 10, 40 or 200 ppm to the point of run-off on the test plants, equivalent to a rate of 25, 100 or 500 g/ha, respectively.
For testing combinations, the stock suspensions of the individual active ingredients prepared as above are then combined in the appropriate ratio, and diluted to the final desired concentration to form a test suspension.
The resulting test suspensions are then used in the following tests. Test suspensions are sprayed to the point of run-off on the test plants at the rates of active ingredient described below. The tests were replicated three times and the results reported as the average of the three replicates.
The test suspension was sprayed to the point of run-off on wheat seedlings. The following day the seedlings were inoculated with a spore dust of Erysiphe graminis f. sp. tritici, (the causal agent of wheat powdery mildew) and incubated in a growth chamber at 20° C. for 8 days, after which disease ratings were made.
Results for Test A are given in Table A. In the table, a rating of 100 indicates 100% disease control and a rating of 0 indicates no disease control (relative to the controls). Columns labeled Observed Disease Control indicates the average of three replications. Columns labeled Expected Disease Control indicate the expected value for each treatment mixture using the Colby equation.

CCCOc1nc2ccc(I)cc2c(=O)n1CCC [Compound 1, 6-iodo-3-propyl-2-propyloxy-4(3H)-quinazolinone]
Observed Disease Control ([1]; application rate 0.08 ppm, inoculated day after spray, rated after 8 days at 20° C.): 80% | Observed Disease Control ([1]; application rate 0.4 ppm, rated after 8 days): 99% | melting point: 48 to 49 °C

2,6-dinitro-4-octylphenyl crotonates and 2,4-dinitro-6-octylphenyl crotonates [Dinocap]
Observed Disease Control ([1]; application rate 10 ppm, rated after 8 days): 45% | Observed Disease Control ([1]; application rate 40 ppm, rated after 8 days): 76% | Observed Disease Control ([1]; application rate 200 ppm, rated after 8 days): 98%
